Measurements taken from US20130040991A1, “PHARMACEUTICAL COMPOSITION COMPRISING GEMFIBROZIL AND CYP2C8 AND/OR OATP SUBSTRATE DRUG SUCH AS REPAGLINIDE” (priority 2010, published 2013).

Assays:
CYP2C8 [1] = target: T1, CYP2C8 (Homo sapiens, UniProt P10632); set-up: Estimation of CYP2C8 Half-Life Using Repaglinide as an in Vivo Probe; host or cells: in vivo (subjects of the cited studies); details: cited from earlier work
T1 sequence (P10632 1-490): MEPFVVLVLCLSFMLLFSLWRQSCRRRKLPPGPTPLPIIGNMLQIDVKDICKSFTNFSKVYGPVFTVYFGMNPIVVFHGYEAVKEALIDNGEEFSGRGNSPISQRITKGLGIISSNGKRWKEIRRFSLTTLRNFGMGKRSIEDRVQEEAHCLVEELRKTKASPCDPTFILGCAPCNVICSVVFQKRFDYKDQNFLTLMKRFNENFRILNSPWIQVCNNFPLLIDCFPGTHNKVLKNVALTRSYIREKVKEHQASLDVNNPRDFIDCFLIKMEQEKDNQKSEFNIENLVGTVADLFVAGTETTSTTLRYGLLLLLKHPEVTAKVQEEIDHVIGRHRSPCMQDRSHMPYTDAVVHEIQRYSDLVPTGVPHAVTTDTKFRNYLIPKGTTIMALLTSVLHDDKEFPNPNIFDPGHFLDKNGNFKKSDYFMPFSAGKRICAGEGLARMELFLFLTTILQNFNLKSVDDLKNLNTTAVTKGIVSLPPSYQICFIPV

CYP2C8 [2] = target: T1, CYP2C8; assay: Effect of single oral gemfibrozil doses on repaglinide AUC, fitted to a mechanistic model of CYP2C8 inhibition; type: in vivo; set-up: The subjects ingested in a cross-over study a small dose (0.25 mg) of repaglinide with different doses of gemfibrozil; from tissue; host or cells: living human subjects (in vivo)
Procedure: The effect of various oral single doses (30 mg, 100 mg, 300 mg and 900 mg) of gemfibrozil on the total plasma exposure, i.e., area under the plasma concentration-time curve (AUC), of a CYP2C8 and OATP1B1 substrate drug (repaglinide) was measured. The mean fold increase in the AUC (AUCi/AUCc) of repaglinide with the different gemfibrozil doses in six human subjects is given in relation to the mean average plasma concentration of gemfibrozil 1-O-β-glucuronide during 10 hours after gemfirozil dosing (Cavg). The subjects ingested in a cross-over study a small dose (0.25 mg) of repaglinide with different doses of gemfibrozil. Venous blood samples were taken at fixed time points up to 10 hours after gemfibrozil dosing, and plasma repaglinide, gemfibrozil and gemfibrozil 1-O-β-glucuronide concentrations were determined using a validated liquid chromatographic-tandem mass spectrometric (LC/MSMS) method. The data were fitted to the following mechanistic model (equation):

CYP2C8 [3] = target: T1, CYP2C8; set-up: Estimation of CYP2C8 Half-Life Using Repaglinide as an in Vivo Probe; host or cells: in vivo (subjects of the cited studies); details: gemfibrozil 600 mg twice daily; Tornio et al 2008; cited from earlier work
[4] = Effects of different gemfibrozil doses on plasma profiles of repaglinide, repaglinide dose adjusted to equal AUC; type: in vivo, human; details: when the ratio of gemfibrozil (0-900 mg) to repaglinide is increased; repaglinide dose adjusted to same AUC
Procedure: The effects of different doses of gemfibrozil (0 mg, 30 mg, 100 mg, 300 mg and 900 mg) on plasma profiles of repaglinide were measured. The doses of repaglinide were adjusted so that the total exposure to repaglinide (defined as the area under plasma repaglinide concentration-time curve, AUC) is the same in all 5 cases, corresponding to the AUC after a single dose of 0.25 mg repaglinide without gemfibrozil.

Structure (SMILES)	inhibitor of CYP2C8 (qualitative) (CYP2C8 [1])	effect of small gemfibrozil doses in repeated dosing (CYP2C8 [2]; repeated dosing, gemfibrozil doses <30 mg, due to irreversible inhibition of CYP2C8)	inhibition of the CYP2C8 enzyme (CYP2C8 [2]; single oral dose of 100 mg gemfibrozil, model-based from fold increase in repaglinide (0.25 mg) AUC, six human subjects)	persistence of the risk of gemfibrozil-related interactions (effect on repaglinide pharmacokinetics) after the dose (CYP2C8 [3])	elimination half-life (and effect) of repaglinide [4]	estimated peak concentration of repaglinide [4]
Cc1ccc(C)c(OCCCC(C)(C)C(=O)O[C@@H]2O[C@H](C(=O)O)[C@@H](O)[C@H](O)[C@H]2O)c1 [gemfibrozil 1-O-β-glucuronide]	potent inhibitor and inactivator	–	–	–	–	–
Cc1ccc(C)c(OCCCC(C)(C)C(=O)O)c1 [gemfibrozil, 5-(2,5-dimethylphenoxy)-2,2-dimethyl-pentanoic acid]	relatively weak inhibitor	increased	90%	at Least 12 hours	–	–
CCOc1cc(CC(=O)N[C@@H](CC(C)C)c2ccccc2N2CCCCC2)ccc1C(=O)O [repaglinide]	–	–	–	–	prolonged	reduced
